Laboratory results published in US5240925A (priority 1991, dated 1993).

Key:
Assay in all cases: whole plant or invertebrate
Assay type in all cases: in vivo
[1] = tested on: Pseudoperonospora cubensis; settings: in Cucumis sativus, 168 h, read-out: percent disease control, CDM
[2] = tested on: Erysiphe graminis (f. sp. tritici); settings: Blumeria graminis, 192 h; read-out: percent disease control, WPM
Phytophthora infestans = settings: in Solanum lycopersicum, 96 h, read-out: percent disease control, TLB
[3] = tested on: Puccinia recondita (f. sp. tritici Races PKB and PLD); settings: 240 h, read-out: percent disease control, WLR
Piricularia oryzae = settings: Pyricularia oryzae, 192 h, read-out: percent disease control, RB
[4] = tested on: Puccinia graminis (f. sp. tritici Race 15B-2); settings: 240 h, read-out: percent disease control, WSR

Row | Structure (SMILES) | pest or weed control at 300 g/ha [1] [%] | pest or weed control at 300 g/ha [2] [%] | pest or weed control at 300 g/ha [4] [%] | pest or weed control at 300 g/ha (Phytophthora infestans) [%] | pest or weed control at 300 g/ha (Piricularia oryzae) [%] | pest or weed control at 150 g/ha [2] [%] | pest or weed control at 150 g/ha (Phytophthora infestans) [%] | pest or weed control at 150 g/ha [3] [%] | also measured
1 | N#CC(CC1CCCO1)(Cn1cncn1)c1ccccc1 (centres unmarked) [Example 1, 1-[2-Cyano-2-phenyl-3-(tetrahydrofuran-2-yl)propyl]-1,2,4-triazole] |  |  |  |  |  |  |  |  | pest or weed control at 225 g/ha [1]: 10%; pest or weed control at 225 g/ha [2]: 100%; pest or weed control at 225 g/ha (Phytophthora infestans): 5%; pest or weed control at 225 g/ha [3]: 100%; pest or weed control at 225 g/ha (Piricularia oryzae): 100%
2 | N#CC(CCN1CCOCC1)(Cn1cncn1)c1ccc(Cl)cc1 (centres unmarked) [Example 2, 1-[2-(4-Chlorophenyl)-2-cyano-4-(4-morpholinyl)butyl]-1,2,4-triazole] | 0 | 50 | 0 | 0 | 0 |  |  |  | 
3 | CC1CN(CCCC(C#N)(Cn2cncn2)c2ccc(Cl)cc2)CC(C)O1 (centres unmarked) [Example 3, 1-[2-(4-Chlorophenyl)-2-cyano-5-(2,6-dimethyl-4-morpholinyl)pentyl]-1,2,4-triazole] | 0 | 0 | 50 | 0 | 0 |  |  |  | 
4 | CC1CN(CCC(C#N)(Cn2cncn2)c2ccc(Cl)cc2)CC(C)O1 (centres unmarked) [Example 4, 1-[2-(4-Chlorophenyl)-2-cyano-4-(2,6-dimethyl-4-morpholinyl)butyl]-1,2,4-triazole] | 0 | 0 | 100 | 0 | 0 |  |  |  | 
5 | CC1CN(CCCCC(C#N)(Cn2cncn2)c2ccc(Cl)cc2)CC(C)O1 (centres unmarked) [Example 5, 1-[2-(4-Chlorophenyl)-2-cyano-6-(2,6-dimethyl-4-morpholinyl)hexyl]-1,2,4-triazole] | 0 | 0 | 80 | 0 | 0 |  |  |  | 
6 | CC1CN(CCCCCCCCCCCC(C#N)(Cn2cncn2)c2ccc(Cl)cc2)CC(C)O1 (centres unmarked) [Example 6, 1-[2-(4-Chlorophenyl)-2-cyano-13-(2,6-dimethyl-4-morpholinyl)tridecyl]-1,2,4-triazole] | 0 | 0 | 80 | 0 | 0 |  |  |  | 
7 | N#CC(Cc1cccnc1)(Cn1cncn1)c1ccc(Cl)cc1 (centres unmarked) [Example 7, 1-[2-(4-Chlorophenyl)-2-cyano-3-(3-pyridyl)propyl]-1,2,4-triazole] |  |  |  |  |  | 85 | 0 | 0 | pest or weed control at 150 g/ha (Piricularia oryzae): 0%
8 | N#CC(CCc1cccs1)(Cn1cncn1)c1ccc(Cl)cc1 (centres unmarked) [Example 8, 1-[2-(4-Chlorophenyl)-2-cyano-4-(2-thienyl)butyl]-1,2,4-triazole] |  |  |  |  |  | 95 | 80 | 95 | pest or weed control at 150 g/ha [1]: 100%; pest or weed control at 150 g/ha [4]: 95%; pest or weed control at 150 g/ha (Piricularia oryzae): 0%
9 | COc1ccccc1C(C#N)(Cc1ccccn1)Cn1cncn1 (centres unmarked) [Example 9, 1-[2-Cyano-2-(2-methoxyphenyl)-3-(2-pyridyl)propyl]-1,2,4-triazole] |  |  |  |  |  | 0 | 100 | 0 | pest or weed control at 150 g/ha (Piricularia oryzae): 0%
10 | N#CC(CCCN1CCCCC1)(Cn1cncn1)c1ccc(Cl)cc1Cl (centres unmarked) [Example 10, 1-[2-Cyano-2-(2,4-dichlorophenyl)-5-(1-piperidinyl)pentyl]-1,2,4-triazole] |  | 75 |  |  | 50 |  |  |  | pest or weed control at 300 g/ha [3]: 25%
11 | CN1CCCC(CC(C#N)(Cn2cncn2)c2ccc(Cl)cc2Cl)C1 (centres unmarked) [Example 11, 1-[2-Cyano-2-(2,4-dichlorophenyl)-3-(1-methylpiperidin-3-yl)propyl]-1,2,4-triazole] | 50 | 95 |  | 0 | 0 |  |  |  | pest or weed control at 300 g/ha [3]: 25%
12 | N#CC(Cc1ccco1)(Cn1cncn1)c1ccc(Cl)cc1 (centres unmarked) [Example 12, 1-[2-(4-Chlorophenyl)-2-cyano-3-(2-furyl)propyl]-1,2,4-triazole] |  |  |  |  |  | 100 | 80 | 0 | pest or weed control at 150 g/ha [4]: 50%
13 | N#CC(Cc1cccs1)(Cn1cncn1)c1ccc(Cl)cc1 (centres unmarked) [Example 13, 1-[2-(4-Chlorophenyl)-2-cyano-3-(2-thienyl)propyl]-1,2,4-triazole] | 0 |  |  |  | 0 | 100 | 0 | 0 | pest or weed control at 150 g/ha [4]: 100%
14 | COc1ccccc1C(C#N)(CC1CCCCO1)Cn1cncn1 (centres unmarked) [Example 14, 1-[2-Cyano-2-(2-methoxyphenyl)-3-(tetrahydropyran-2-yl)propyl]-1,2,4-triazole] | 0 | 99 |  | 0 | 0 |  |  |  | pest or weed control at 300 g/ha [3]: 0%
15 | N#CC(CCc1ccccn1)(Cn1cncn1)c1ccccc1 (centres unmarked) [Example 15, 1-[2-Cyano-2-phenyl-4-(2-pyridyl)butyl]-1,2,4-triazole] | 0 | 85 |  | 85 |  |  |  |  | pest or weed control at 300 g/ha [3]: 0%
